From US5128254A (The United States of America as represented by the …, priority 1989, dated 1992)

Legend:
[1] = target: T1, D2 receptor (long isoform, D2L) (Rattus norvegicus, UniProt P61169); conditions: competition for [3H]methylspiperone binding
Protocol: (§1) A 2.4-kb Xba I-Xho I fragment containing the entire coding region and most of the D2 receptor cDNA was excised from the pBluescript clone and ligated into the corresponding restriction sites of the pEUK-C1 vector (Clontech, Palo Alto, Calif.) The resulting plasmid, pEUK-D2L, was then transfected into COS-7 cells using a modified CaPO4 precipitation method (Clontech). The cells were treated with 3 mM sodium butyrate after 48 hr and were harvested after 72 hr.

[2] = target: T1, D2 receptor (long isoform, D2L); test: biochemical; conditions: transfected COS-7 cell membranes
Protocol: as §1

T1 sequence (P61169 whole entry, canonical isoform): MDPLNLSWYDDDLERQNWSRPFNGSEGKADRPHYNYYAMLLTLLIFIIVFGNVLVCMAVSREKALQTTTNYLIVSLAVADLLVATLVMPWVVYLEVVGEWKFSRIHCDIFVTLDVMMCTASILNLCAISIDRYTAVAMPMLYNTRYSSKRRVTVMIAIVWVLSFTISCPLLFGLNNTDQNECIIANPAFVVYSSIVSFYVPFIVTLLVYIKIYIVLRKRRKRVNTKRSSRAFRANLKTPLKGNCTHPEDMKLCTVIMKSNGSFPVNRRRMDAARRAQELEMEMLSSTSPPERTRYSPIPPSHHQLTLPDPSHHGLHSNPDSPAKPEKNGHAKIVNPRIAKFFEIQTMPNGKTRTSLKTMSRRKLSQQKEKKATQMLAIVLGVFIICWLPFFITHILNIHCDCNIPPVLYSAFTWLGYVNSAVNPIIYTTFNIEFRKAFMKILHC

SMILES	effect of guanine nucleotides on competition curve ([1]; data not shown)	Hill coefficient of competition curve ([1]; transfected COS-7 cell membranes)	Kd ([2]; affinity of [3H]methylspiperone saturation binding, mean ± SEM) [nM]	Kd ([2]; calculated KD of [3H]methylspiperone binding (Scatchard), one experiment representative of three (FIG. 2A)) [nM]
NCCc1ccc(O)c(O)c1 [Dopamine]	not significantly affected by guanine nucleotides	≈ 1		
CN1CN(c2ccccc2)C2(CCN(CCCC(=O)c3ccc(F)cc3)CC2)C1=O [[3H]methylspiperone]			0.0621 ± 0.0021	0.0641
